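Cells were grown in 96-well plates and exposed to each compound for 48 hours at five concentrations; endpoints were interpolated linearly between bracketing concentrations, or set to the highest concentration if not reached. TGI denotes the concentration required for complete inhibition of growth.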
Key:
Experiment in all cases: inhibition of tumour cell growth, NCI panel, 48 h
MCF7 breast = tested on: MCF7 breast
NCI-H226 lung = tested on: NCI-H226 lung
HCT-116 colon = tested on: HCT-116 colon
NCI-H23 lung = tested on: NCI-H23 lung
HOP-62 NSCLC = tested on: HOP-62 NSCLC
SNB-19 CNS = tested on: SNB-19 CNS
SNB-75 CNS = tested on: SNB-75 CNS
T-47D breast = tested on: T-47D breast
NCI-H522 lung = tested on: NCI-H522 lung
UACC-257 melanoma = tested on: UACC-257 melanoma
HCT-15 colon = tested on: HCT-15 colon
MALME-3M melanoma = tested on: MALME-3M melanoma
TK-10 renal = tested on: TK-10 renal
HL-60(TB) leukemia = tested on: HL-60(TB) leukemia
SF-268 CNS = tested on: SF-268 CNS
SK-MEL-5 melanoma = tested on: SK-MEL-5 melanoma
SK-MEL-28 melanoma = tested on: SK-MEL-28 melanoma
SK-MEL-2 melanoma = tested on: SK-MEL-2 melanoma
ACHN renal = tested on: ACHN renal
MDA-N = tested on: MDA-N
SK-OV-3 ovarian = tested on: SK-OV-3 ovarian
EKVX NSCLC = tested on: EKVX NSCLC
MOLT-4 leukemia = tested on: MOLT-4 leukemia
PC-3 prostate = tested on: PC-3 prostate
M14 melanoma = tested on: M14 melanoma
SR leukemia = tested on: SR leukemia
A498 renal = tested on: A498 renal
OVCAR-8 ovarian = tested on: OVCAR-8 ovarian
LOX IMVI melanoma = tested on: LOX IMVI melanoma
CCRF-CEM leukemia = tested on: CCRF-CEM leukemia
OVCAR-4 ovarian = tested on: OVCAR-4 ovarian
HCC-2998 colon = tested on: HCC-2998 colon
SF-295 CNS = tested on: SF-295 CNS
DU-145 prostate = tested on: DU-145 prostate
UACC-62 melanoma = tested on: UACC-62 melanoma
KM12 colon = tested on: KM12 colon
MDA-MB-435 = tested on: MDA-MB-435
IGROV1 ovarian = tested on: IGROV1 ovarian
K-562 leukemia = tested on: K-562 leukemia
HS 578T breast = tested on: HS 578T breast
COLO 205 colon = tested on: COLO 205 colon
RXF 393 renal = tested on: RXF 393 renal
SW-620 colon = tested on: SW-620 colon
U251 CNS = tested on: U251 CNS
HOP-92 NSCLC = tested on: HOP-92 NSCLC
NCI-H460 lung = tested on: NCI-H460 lung
SN12C renal = tested on: SN12C renal
BT-549 breast = tested on: BT-549 breast
UO-31 renal = tested on: UO-31 renal
NCI/ADR-RES ovarian = tested on: NCI/ADR-RES ovarian
786-0 renal = tested on: 786-0 renal
OVCAR-5 ovarian = tested on: OVCAR-5 ovarian
HT29 colon = tested on: HT29 colon
SF-539 CNS = tested on: SF-539 CNS
CAKI-1 renal = tested on: CAKI-1 renal
A549 NSCLC = tested on: A549 NSCLC
OVCAR-3 ovarian = tested on: OVCAR-3 ovarian
RPMI-8226 leukemia = tested on: RPMI-8226 leukemia
MDA-MB-231 breast = tested on: MDA-MB-231 breast

In the case of `COc1ccc(/C=N/c2nc3cc4sc(/N=C/c5ccc(OC)cc5)nc4cc3s2)cc1`, the TGI (MCF7 breast) is reported as greater than 88.9 µM, the TGI (NCI-H226 lung) is reported as greater than 77.8 µM and the TGI (HCT-116 colon) is reported as greater than 100 µM. It also gave a TGI (NCI-H23 lung) of 97.7 µM, a TGI (HOP-62 NSCLC) greater than 100 µM and a TGI (SNB-19 CNS) greater than 100 µM. The TGI (SNB-75 CNS) was greater than 100 µM, the TGI (T-47D breast) was greater than 100 µM and the TGI (NCI-H522 lung) was greater than 52.7 µM. It also gave a TGI (UACC-257 melanoma) greater than 100 µM, a TGI (HCT-15 colon) greater than 100 µM and a TGI (MALME-3M melanoma) greater than 100 µM. The TGI (TK-10 renal) was greater than 94.8 µM, the TGI (HL-60(TB) leukemia) was greater than 100 µM and the TGI (SF-268 CNS) was greater than 100 µM. The TGI (SK-MEL-5 melanoma) was greater than 100 µM, the TGI (SK-MEL-28 melanoma) was greater than 100 µM and the TGI (SK-MEL-2 melanoma) was greater than 100 µM. It also gave a TGI (ACHN renal) greater than 100 µM, a TGI (MDA-N) greater than 100 µM and a TGI (SK-OV-3 ovarian) greater than 100 µM. The TGI (EKVX NSCLC) was greater than 100 µM, the TGI (MOLT-4 leukemia) was greater than 100 µM and the TGI (PC-3 prostate) was greater than 100 µM. The TGI (M14 melanoma) was greater than 100 µM, the TGI (SR leukemia) was greater than 100 µM and the TGI (A498 renal) was greater than 100 µM. For the same compound, the TGI (OVCAR-8 ovarian) was greater than 100 µM, the TGI (LOX IMVI melanoma) was greater than 100 µM and the TGI (CCRF-CEM leukemia) was greater than 45.2 µM. The TGI (OVCAR-4 ovarian) was greater than 100 µM, the TGI (HCC-2998 colon) was 71.4 µM and the TGI (SF-295 CNS) was greater than 100 µM. For the same compound, the TGI (DU-145 prostate) was greater than 100 µM, the TGI (UACC-62 melanoma) was greater than 100 µM and the TGI (KM12 colon) was greater than 100 µM. The TGI (MDA-MB-435) was 99.5 µM, the TGI (IGROV1 ovarian) was greater than 100 µM and the TGI (K-562 leukemia) was greater than 100 µM. For the same compound, the TGI (HS 578T breast) was greater than 81.8 µM, the TGI (COLO 205 colon) was greater than 22.4 µM and the TGI (RXF 393 renal) was greater than 100 µM. It also gave a TGI (SW-620 colon) greater than 100 µM, a TGI (U251 CNS) greater than 100 µM and a TGI (HOP-92 NSCLC) greater than 100 µM. It also gave a TGI (NCI-H460 lung) greater than 100 µM, a TGI (SN12C renal) greater than 100 µM and a TGI (BT-549 breast) greater than 100 µM. For the same compound, the TGI (UO-31 renal) was greater than 100 µM, the TGI (NCI/ADR-RES ovarian) was greater than 100 µM and the TGI (786-0 renal) was greater than 100 µM. For the same compound, the TGI (OVCAR-5 ovarian) was greater than 100 µM, the TGI (HT29 colon) was greater than 100 µM and the TGI (SF-539 CNS) was greater than 100 µM. For the same compound, the TGI (CAKI-1 renal) was greater than 100 µM, the TGI (A549 NSCLC) was greater than 100 µM and the TGI (OVCAR-3 ovarian) was greater than 100 µM. It also gave a TGI (RPMI-8226 leukemia) greater than 100 µM and a TGI (MDA-MB-231 breast) greater than 100 µM.
`C1CSCCCSCCCSCCCSCCCSC1` showed a TGI (MCF7 breast) greater than 76.7 µM, a TGI (NCI-H226 lung) greater than 77.2 µM and a TGI (HCT-116 colon) greater than 100 µM. The TGI (NCI-H23 lung) was greater than 100 µM, the TGI (HOP-62 NSCLC) was greater than 100 µM and the TGI (SNB-19 CNS) was greater than 100 µM. It also gave a TGI (SNB-75 CNS) greater than 93.2 µM, a TGI (T-47D breast) greater than 88.6 µM and a TGI (NCI-H522 lung) of 81.2 µM. The TGI (UACC-257 melanoma) was 97.2 µM, the TGI (HCT-15 colon) was greater than 100 µM and the TGI (MALME-3M melanoma) was greater than 100 µM. It also gave a TGI (TK-10 renal) greater than 100 µM, a TGI (HL-60(TB) leukemia) of 36.5 µM and a TGI (SF-268 CNS) greater than 100 µM. It also gave a TGI (SK-MEL-5 melanoma) of 28.3 µM, a TGI (SK-MEL-28 melanoma) greater than 100 µM and a TGI (SK-MEL-2 melanoma) greater than 95.4 µM. It also gave a TGI (ACHN renal) greater than 100 µM, a TGI (MDA-N) greater than 100 µM and a TGI (SK-OV-3 ovarian) greater than 100 µM. For the same compound, the TGI (EKVX NSCLC) was greater than 100 µM, the TGI (MOLT-4 leukemia) was 38.1 µM and the TGI (PC-3 prostate) was greater than 90.2 µM. The TGI (M14 melanoma) was greater than 100 µM, the TGI (SR leukemia) was 29.5 µM and the TGI (A498 renal) was greater than 78.1 µM. For the same compound, the TGI (OVCAR-8 ovarian) was greater than 100 µM, the TGI (LOX IMVI melanoma) was 61.3 µM and the TGI (CCRF-CEM leukemia) was 32.4 µM. For the same compound, the TGI (OVCAR-4 ovarian) was greater than 100 µM, the TGI (HCC-2998 colon) was greater than 100 µM and the TGI (SF-295 CNS) was greater than 100 µM. For the same compound, the TGI (DU-145 prostate) was greater than 100 µM, the TGI (UACC-62 melanoma) was greater than 100 µM and the TGI (KM12 colon) was greater than 100 µM. The TGI (MDA-MB-435) was greater than 100 µM, the TGI (IGROV1 ovarian) was greater than 87.1 µM and the TGI (K-562 leukemia) was greater than 80 µM. For the same compound, the TGI (HS 578T breast) was greater than 100 µM, the TGI (COLO 205 colon) was 34.5 µM and the TGI (RXF 393 renal) was greater than 100 µM. It also gave a TGI (SW-620 colon) greater than 100 µM, a TGI (U251 CNS) greater than 100 µM and a TGI (HOP-92 NSCLC) greater than 93.4 µM. For the same compound, the TGI (NCI-H460 lung) was greater than 51.4 µM, the TGI (SN12C renal) was greater than 100 µM and the TGI (BT-549 breast) was greater than 88.5 µM. For the same compound, the TGI (UO-31 renal) was greater than 100 µM, the TGI (NCI/ADR-RES ovarian) was greater than 100 µM and the TGI (786-0 renal) was greater than 100 µM. For the same compound, the TGI (OVCAR-5 ovarian) was greater than 100 µM, the TGI (HT29 colon) was greater than 63.2 µM and the TGI (SF-539 CNS) was greater than 100 µM. It also gave a TGI (CAKI-1 renal) of 48.8 µM, a TGI (A549 NSCLC) greater than 100 µM and a TGI (OVCAR-3 ovarian) greater than 100 µM. It also gave a TGI (RPMI-8226 leukemia) of 36.9 µM and a TGI (MDA-MB-231 breast) greater than 88.4 µM.
